Laboratory results reported in ChEMBL document CHEMBL1123907 (J Med Chem, 1987).

Columns and labels:
[1] = target: Muscarinic acetylcholine receptor; test: Binding affinity against Muscarinic acetylcholine receptor was determined in homogenized rat cortex tissue using [3H]N-methylscopolamine as radioligand
[2] = Binding affinity against imipramine receptor was determined in homogenized rat cortex tissue using [3H]-imipramine as radioligand

Row | SMILES | Ki [1] [nM] | Ki [2] [µM]
1 | CN(C)CCC(=O)N1c2ccccc2C(=O)Nc2cccnc21 | 45 | > 100
2 | CN(C)CCC(=O)N1c2ccccc2NC(=O)c2ccccc21 | 6 | > 100
3 | CN(C)CCCN1c2ccccc2C(=O)Nc2cccnc21 | 200 | 15
4 | CN(C)CCCN1c2ccccc2NC(=O)c2ccccc21 | 50 | 4
5 | CN(C)CCCN1c2ccccc2CCc2ccccc21 [IMIPRAMINE] | 65 | 0.012
6 | CN1CCN(CC(=O)N2c3ccccc3C(=O)Nc3cccnc32)CC1 [PIRENZEPINE] | – | > 100

Second part, the compound after the results:

Row | Ki [1] [nM] | Ki [2] [µM] | SMILES
7 | 23 | > 100 | CN1CCN(CC(=O)N2c3ccccc3NC(=O)c3ccccc32)CC1
8 | 200 | > 100 | CN1CCN(CC(=O)N2c3ccccc3CCc3ccccc32)CC1
9 | 240 | 0.4 | CN(C)CCC(=O)N1c2ccccc2CCc2ccccc21
